PubChem BioAssay (NCI)
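How tested: cells in 96-well plates exposed to compound for 48 hours at five concentrations. GI50 = concentration required for 50% inhibition of growth. TGI: concentration producing complete growth inhibition.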

Legend:
Assay in all cases: inhibition of tumour cell growth, NCI panel, 48 h
MALME-3M melanoma = system: MALME-3M melanoma
UO-31 renal = system: UO-31 renal
MCF7 breast = system: MCF7 breast
SNB-19 CNS = system: SNB-19 CNS
SK-OV-3 ovarian = system: SK-OV-3 ovarian
UACC-62 melanoma = system: UACC-62 melanoma
HS 578T breast = system: HS 578T breast
SF-295 CNS = system: SF-295 CNS
NCI/ADR-RES ovarian = system: NCI/ADR-RES ovarian
NCI-H460 lung = system: NCI-H460 lung
HL-60(TB) leukemia = system: HL-60(TB) leukemia
SR leukemia = system: SR leukemia
HCT-15 colon = system: HCT-15 colon
PC-3 prostate = system: PC-3 prostate
K-562 leukemia = system: K-562 leukemia
OVCAR-3 ovarian = system: OVCAR-3 ovarian
LOX IMVI melanoma = system: LOX IMVI melanoma
T-47D breast = system: T-47D breast
COLO 205 colon = system: COLO 205 colon
NCI-H23 lung = system: NCI-H23 lung
SNB-75 CNS = system: SNB-75 CNS
MOLT-4 leukemia = system: MOLT-4 leukemia
SK-MEL-28 melanoma = system: SK-MEL-28 melanoma
HOP-62 NSCLC = system: HOP-62 NSCLC
SF-539 CNS = system: SF-539 CNS
ACHN renal = system: ACHN renal
HOP-92 NSCLC = system: HOP-92 NSCLC
A498 renal = system: A498 renal
BT-549 breast = system: BT-549 breast
HT29 colon = system: HT29 colon
UACC-257 melanoma = system: UACC-257 melanoma
KM12 colon = system: KM12 colon
A549 NSCLC = system: A549 NSCLC
786-0 renal = system: 786-0 renal
OVCAR-8 ovarian = system: OVCAR-8 ovarian
EKVX NSCLC = system: EKVX NSCLC
HCC-2998 colon = system: HCC-2998 colon
OVCAR-5 ovarian = system: OVCAR-5 ovarian
SK-MEL-5 melanoma = system: SK-MEL-5 melanoma
MDA-MB-231 breast = system: MDA-MB-231 breast
SF-268 CNS = system: SF-268 CNS
HCT-116 colon = system: HCT-116 colon
OVCAR-4 ovarian = system: OVCAR-4 ovarian
DU-145 prostate = system: DU-145 prostate
CAKI-1 renal = system: CAKI-1 renal
SK-MEL-2 melanoma = system: SK-MEL-2 melanoma
M14 melanoma = system: M14 melanoma
SN12C renal = system: SN12C renal
NCI-H522 lung = system: NCI-H522 lung
SW-620 colon = system: SW-620 colon
RPMI-8226 leukemia = system: RPMI-8226 leukemia
NCI-H226 lung = system: NCI-H226 lung
U251 CNS = system: U251 CNS
MDA-MB-435 = system: MDA-MB-435
CCRF-CEM leukemia = system: CCRF-CEM leukemia
RXF 393 renal = system: RXF 393 renal
TK-10 renal = system: TK-10 renal
IGROV1 ovarian = system: IGROV1 ovarian

## O=C(Nc1cccc(O)c1)c1ccc(NC2=C(Cl)C(=O)N(Cc3ccc(Cl)cc3Cl)C2=O)cc1
MALME-3M melanoma
  GI50: 2.23 µM
  TGI: 5.75 µM
UO-31 renal
  GI50: 1.91 µM
  TGI: 3.75 µM
MCF7 breast
  GI50: 1.83 µM
  TGI: 4.29 µM
SNB-19 CNS
  GI50: 2.69 µM
  TGI: 7.68 µM
SK-OV-3 ovarian
  GI50: 4.6 µM
  TGI: 14.7 µM
UACC-62 melanoma
  GI50: 5.31 µM
  TGI: 9.96 µM
HS 578T breast
  GI50: 3.24 µM
  TGI: 11.9 µM
SF-295 CNS
  GI50: 1.95 µM
  TGI: 4.07 µM
NCI/ADR-RES ovarian
  GI50: 21.6 µM
  TGI: 48.1 µM
NCI-H460 lung
  GI50: 2.86 µM
  TGI: 8.91 µM
HL-60(TB) leukemia
  TGI: 3.75 µM
SR leukemia
  GI50: 0.168 µM
  TGI: 0.411 µM
HCT-15 colon
  GI50: 2.51 µM
  TGI: 6.13 µM
PC-3 prostate
  GI50: 1.75 µM
  TGI: 4.28 µM
K-562 leukemia
  GI50: 1.08 µM
  TGI: 3.96 µM
OVCAR-3 ovarian
  GI50: 1.66 µM
  TGI: 3.45 µM
LOX IMVI melanoma
  GI50: 1.62 µM
  TGI: 3.16 µM
T-47D breast
  GI50: 2.01 µM
  TGI: > 21.2 µM
COLO 205 colon
  GI50: 1.9 µM
  TGI: 4.18 µM
NCI-H23 lung
  GI50: 19.6 µM
  TGI: 36.1 µM
SNB-75 CNS
  GI50: 2.77 µM
  TGI: 11.2 µM
MOLT-4 leukemia
  GI50: 0.383 µM
  TGI: 2.17 µM
SK-MEL-28 melanoma
  GI50: 3.41 µM
  TGI: 10.1 µM
HOP-62 NSCLC
  GI50: 8.44 µM
  TGI: > 58.5 µM
SF-539 CNS
  GI50: 6.32 µM
  TGI: 11.8 µM
ACHN renal
  GI50: 1.75 µM
  TGI: 3.21 µM
HOP-92 NSCLC
  GI50: 1.86 µM
  TGI: 4.16 µM
A498 renal
  GI50: 15 µM
  TGI: 29.3 µM
BT-549 breast
  GI50: 5.7 µM
  TGI: 12.2 µM
HT29 colon
  GI50: 2.75 µM
  TGI: > 22.1 µM
UACC-257 melanoma
  GI50: 7.96 µM
  TGI: 21.6 µM
KM12 colon
  GI50: 1.84 µM
  TGI: 3.66 µM
A549 NSCLC
  GI50: 15.7 µM
  TGI: 31.7 µM
786-0 renal
  GI50: 7.2 µM
  TGI: > 57 µM
OVCAR-8 ovarian
  GI50: 1.95 µM
  TGI: 4.12 µM
EKVX NSCLC
  GI50: 6.74 µM
  TGI: 13.6 µM
HCC-2998 colon
  GI50: 18.9 µM
  TGI: 33.8 µM
OVCAR-5 ovarian
  GI50: 18.8 µM
  TGI: 34.1 µM
SK-MEL-5 melanoma
  GI50: 4.71 µM
  TGI: 9.73 µM
MDA-MB-231 breast
  GI50: 1.85 µM
  TGI: 4.05 µM
SF-268 CNS
  GI50: 2.01 µM
  TGI: 4.75 µM
HCT-116 colon
  GI50: 6.89 µM
  TGI: > 56.4 µM
OVCAR-4 ovarian
  GI50: 5.43 µM
  TGI: 12.7 µM
DU-145 prostate
  GI50: 6.15 µM
  TGI: 11.6 µM
CAKI-1 renal
  GI50: 1.92 µM
  TGI: 3.58 µM
SK-MEL-2 melanoma
  GI50: 5.29 µM
  TGI: 14.5 µM
M14 melanoma
  GI50: 8.29 µM
  TGI: > 55.9 µM
SN12C renal
  GI50: 1.99 µM
  TGI: 4.09 µM
NCI-H522 lung
  GI50: 1.94 µM
  TGI: 4.24 µM
SW-620 colon
  GI50: 2.21 µM
  TGI: 6.42 µM
RPMI-8226 leukemia
  GI50: 0.749 µM
  TGI: 2.52 µM
NCI-H226 lung
  GI50: 6.78 µM
  TGI: 26.7 µM
U251 CNS
  GI50: 1.76 µM
  TGI: 3.23 µM
MDA-MB-435
  GI50: 1.89 µM
  TGI: 3.63 µM
CCRF-CEM leukemia
  GI50: 0.244 µM
  TGI: 0.95 µM
RXF 393 renal
  GI50: 2.31 µM
  TGI: 4.72 µM
TK-10 renal
  GI50: 2.07 µM
  TGI: 4.82 µM
IGROV1 ovarian
  GI50: 1.7 µM
  TGI: 3.3 µM

## CC1=C2[C@@H](CC1)[C@]1(C)O[C@@](C(C)C)(C[C@H]1OC(=O)CO)[C@H]2OC(=O)C1CC1c1ccccc1 (stereo partly specified)
MALME-3M melanoma
  GI50: 16.5 µM
  TGI: 33.4 µM
UO-31 renal
  GI50: 9.49 µM
  TGI: 25.1 µM
MCF7 breast
  GI50: 8.98 µM
  TGI: 27.8 µM
SNB-19 CNS
  GI50: 16.7 µM
  TGI: 34.6 µM
SK-OV-3 ovarian
  GI50: 16.4 µM
  TGI: 30.7 µM
UACC-62 melanoma
  GI50: 10.9 µM
  TGI: 25.6 µM
HS 578T breast
  GI50: 0.0681 µM
  TGI: 2.38 µM
SF-295 CNS
  GI50: 12 µM
  TGI: 24.7 µM
NCI/ADR-RES ovarian
  GI50: 8.95 µM
  TGI: 30.8 µM
NCI-H460 lung
  GI50: 14.5 µM
  TGI: 32.2 µM
HL-60(TB) leukemia
  GI50: 15 µM
  TGI: 38 µM
SR leukemia
  GI50: 10.9 µM
  TGI: 34.9 µM
HCT-15 colon
  GI50: 13 µM
  TGI: 27.6 µM
PC-3 prostate
  GI50: 7.36 µM
  TGI: 21.6 µM
K-562 leukemia
  GI50: 12.2 µM
  TGI: 36.5 µM
OVCAR-3 ovarian
  GI50: 13 µM
  TGI: 26.4 µM
LOX IMVI melanoma
  GI50: 14.4 µM
  TGI: 31.1 µM
T-47D breast
  GI50: 4.16 µM
  TGI: 21.6 µM
COLO 205 colon
  GI50: 16.1 µM
  TGI: 33 µM
NCI-H23 lung
  GI50: 14.2 µM
  TGI: 32.4 µM
SNB-75 CNS
  GI50: 13.7 µM
  TGI: 30.4 µM
MOLT-4 leukemia
  GI50: 9.73 µM
  TGI: 28.8 µM
SK-MEL-28 melanoma
  GI50: 16.8 µM
  TGI: 34.6 µM
HOP-62 NSCLC
  GI50: 15.2 µM
  TGI: 29.7 µM
SF-539 CNS
  GI50: 17.1 µM
  TGI: 33.8 µM
ACHN renal
  GI50: 3.05 µM
  TGI: 20.9 µM
HOP-92 NSCLC
  GI50: 11.8 µM
  TGI: 24.6 µM
A498 renal
  GI50: 0.24 µM
  TGI: 0.943 µM
BT-549 breast
  GI50: 13.6 µM
  TGI: 28.7 µM
HT29 colon
  GI50: 13.5 µM
  TGI: 28.3 µM
UACC-257 melanoma
  GI50: 17.3 µM
  TGI: 32.4 µM
KM12 colon
  GI50: 12.9 µM
  TGI: 27.4 µM
A549 NSCLC
  GI50: 11.9 µM
  TGI: 25.9 µM
786-0 renal
  GI50: 15.1 µM
  TGI: 32.2 µM
OVCAR-8 ovarian
  GI50: 12.9 µM
  TGI: 35.6 µM
EKVX NSCLC
  GI50: 8.21 µM
  TGI: 22.7 µM
HCC-2998 colon
  GI50: 13.5 µM
  TGI: 29.4 µM
OVCAR-5 ovarian
  GI50: 20.3 µM
  TGI: 40.4 µM
SK-MEL-5 melanoma
  GI50: 15.2 µM
  TGI: 28.8 µM
MDA-MB-231 breast
  GI50: 15.5 µM
  TGI: 33.7 µM
SF-268 CNS
  GI50: 13 µM
  TGI: 27.9 µM
HCT-116 colon
  GI50: 17.7 µM
  TGI: 33.2 µM
OVCAR-4 ovarian
  GI50: 13 µM
  TGI: 26.9 µM
DU-145 prostate
  GI50: 14.6 µM
  TGI: 27.9 µM
CAKI-1 renal
  GI50: 11.4 µM
  TGI: 24 µM
SK-MEL-2 melanoma
  GI50: 15.5 µM
  TGI: 32.3 µM
M14 melanoma
  GI50: 12.8 µM
  TGI: 29.3 µM
SN12C renal
  GI50: 9.36 µM
  TGI: 27.6 µM
NCI-H522 lung
  GI50: 12.7 µM
  TGI: 28 µM
SW-620 colon
  GI50: 16.4 µM
  TGI: 32.6 µM
RPMI-8226 leukemia
  GI50: 12.8 µM
  TGI: 42.6 µM
NCI-H226 lung
  GI50: 16.2 µM
  TGI: 35.7 µM
U251 CNS
  GI50: 14.8 µM
  TGI: 28.6 µM
MDA-MB-435
  GI50: 14.1 µM
  TGI: 27.3 µM
CCRF-CEM leukemia
  GI50: 16.2 µM
  TGI: 39.1 µM
RXF 393 renal
  GI50: 0.405 µM
  TGI: 17.4 µM
TK-10 renal
  GI50: 16.6 µM
  TGI: 31.6 µM
IGROV1 ovarian
  GI50: 19.1 µM
  TGI: 46.7 µM
